The record followed here is PMC9266368, “Synthesis and Biological Evaluation of Small Molecules as Potential Anticancer Multitarget Agents” (International Journal of Molecular Sciences, 2022).

Assay [1] relates to MCF-7 (breast adenocarcinoma). Briefly: MTT cell viability assay, MCF-7. Format: cell-based. The conditions noted are these: Homo sapiens, MCF7, 48 h, 2 days incubation, average ±SD of three experiments. In outline:
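Cells seeded at 3 × 10^3 (A549, HEK-293) or 5 × 10^3 (HT-29, MCF-7) per well and exposed to serial compound dilutions for 2 days at 37 °C, 5% CO2. MTT added for 3 h, formazan dissolved in DMSO, absorbance at 550 nm; viability relative to untreated cells, IC50 from three independent experiments.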
On the technique in general: Formazan colour is commonly taken as a measure of viable cells.

The target in another assay is T1, membrane PD-L1 (mPD-L1) (Homo sapiens, UniProt Q9NZQ7).
T1 construct: endogenous in cells; host or cells: HT-29, A-549, MCF-7
T1 sequence (Q9NZQ7 19-290): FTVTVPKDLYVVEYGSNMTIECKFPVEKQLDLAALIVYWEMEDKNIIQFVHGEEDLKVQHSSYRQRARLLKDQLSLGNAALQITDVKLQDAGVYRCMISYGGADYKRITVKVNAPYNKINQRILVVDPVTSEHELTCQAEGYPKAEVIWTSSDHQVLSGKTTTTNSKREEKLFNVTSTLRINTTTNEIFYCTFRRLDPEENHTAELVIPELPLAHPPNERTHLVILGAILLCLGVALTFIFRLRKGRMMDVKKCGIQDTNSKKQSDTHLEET
Briefly: Membrane PD-L1 relative quantification by flow cytometry. The format is cell-based. The conditions noted are these: for mPD-L1 relative detection, A-549 / mPD-L1 relative detection, HT-29 / mPD-L1 relative detection, MCF-7: 24 h, 100 or 10 μM (Table 7), percentage referred to DMSO control. In general terms: Flow cytometry measures light scatter and fluorescence of single cells or particles in a stream.

The test system of the next assay is VEGFR-2 kinase activity. The experiment in a line: ADP assay of kinase activity in HT-29 cells. Format: cell-based, human. Particulars: 100 μM, 24 h; DMSO as negative control. The method, then: Finally, to assess the VEGFR-2 inhibitory activity of the selected compounds, namely 21, 22, and 23, we performed an ADP assay. This is a very useful technique that measures kinase activity by monitoring ADP accumulation in cell cultures instead of ATP concentrations.
For the assay, we used HT-29 cells that were previously treated with a 100 μM concentration of 21, 22, and 23, and we used DMSO as a negative control.
The kinase inhibitory activity of the selected compounds was studied as follows: first 10^5 HT-29 cells were seeded on a 12 well-plate, and then they were treated with 100 μM of the selected compounds for 24 h. Afterward, cells were collected, and the kinase activity was determined from collected pellets by following the manufacturer’s instructions indicated in the ADP Colorimetric Assay Kit II (Abcam S.A. reference ab282932).

For a further assay, the system named is HMEC-1 cells. Briefly: Tube disruption on Matrigel (antivascular activity). Format: cell-based. Particulars: 100 μM added to 24 h networks, observed after another 24 h. How it is done:
The antivascular and antiangiogenic activities of the selected compounds, namely 21, 22, and 23, were settled by 3D Matrigel cell cultures. First, we studied the effect on a microvessel network from HMEC-1 cells. HMEC-1 cells were on Matrigel, and after 24 h, when organized capillary networks were formed, 100 μM of the corresponding compounds, 21–23, was added. After another 24 h, we compared the treated networks with the one that received no treatment (see Figure 5a–c).
Wells of a IBIDI 15-well μ-plate for angiogenesis were coated with 15 μL of Matrigel® (10 mg/mL, BD Biosciences Europe) at 4 °C. After gelatinization at 37 °C for 30 min, HMEC-1 cells were seeded at 2 × 10^4 cells/well in 25 μL of culture medium on top of the Matrigel and were incubated for 30 min at 37 °C while they were attached.
For the tube disruption assay (study of antivascular activity), after 24 h, we checked that the capillary networks were formed on wells, and then 100 μM of compounds was added. After 24 h of treatment, the cultures were observed again, and pictures of each well were taken.

On to `Nc1ccc(-c2cn(Cc3cccc(Cl)c3)nn2)cc1` [Compound 22, 4-(1-(3-chlorobenzyl)-1H-1,2,3-triazol-4-yl)aniline], for which, in assay [1], the IC50 (in general, the concentration that gives 50% inhibition) turned out to be 8 ± 2 µM. Also, on membrane PD-L1 (mPD-L1), the “mPD-L1 relative detection, A-549” value was 82 ± 18% and the “mPD-L1 relative detection, MCF-7” value was determined as 90 ± 2%. In addition, the “mPD-L1 relative detection, HT-29” value on membrane PD-L1 (mPD-L1) (HT-29) is listed as 27 ± 5%. For the same molecule, the “Kinase activity measured in HT-29 cell cultures” value (from here on “Kinase activity measured”) in the assay with VEGFR-2 kinase activity turned out to be 33 ± 4%. In the assay with HMEC-1 cells, the “Antivascular effect on formed HMEC-1 capillary networks” value (shortened to “Antivascular effect”) is reported as “disturbance of the formed microvasculature-like network”.
On to `Nc1ccc(-c2cn(Cc3ccc(Cl)cc3)nn2)cc1` [Compound 23, 4-(1-(4-chlorobenzyl)-1H-1,2,3-triazol-4-yl)aniline], for which, in assay [1], the IC50 is 9 ± 6 µM. In addition, at membrane PD-L1 (mPD-L1), the “mPD-L1 relative detection, A-549” value is over 100% and the “mPD-L1 relative detection, MCF-7” value came to 86 ± 3%. In addition, at membrane PD-L1 (mPD-L1) (HT-29), the “mPD-L1 relative detection, HT-29” value was 38 ± 5%. For the same molecule, the “Reduction/inhibition of membrane PD-L1, HT-29” value at membrane PD-L1 (mPD-L1) (HT-29, compared to non-treated cells) was “around 70%”. Moreover, the “Kinase activity measured” value with VEGFR-2 kinase activity amounted to 31 ± 8%. Further, the “Antivascular effect” value in the assay on HMEC-1 cells was “disturbance of the formed microvasculature-like network”.
`Nc1ccc(-c2cn(Cc3ccccc3Cl)nn2)cc1` [Compound 21, 4-(1-(2-chlorobenzyl)-1H-1,2,3-triazol-4-yl)aniline] gave an IC50 in assay [1] of 11 ± 2 µM. At membrane PD-L1 (mPD-L1), the “mPD-L1 relative detection, A-549” value was 95 ± 5% and the “mPD-L1 relative detection, MCF-7” value was 83 ± 7%. The “Kinase activity measured” value in the assay with VEGFR-2 kinase activity was 46 ± 10%. In the assay with HMEC-1 cells, the “Antivascular effect” value is given as “disturbance of the formed microvasculature-like network”.
